As a reminder, the inhibition is the relative decrease from the control value, in per cent. A high value points to a response far below the control. Broadly, the IC50 is the midpoint of a concentration-inhibition curve. One may read the T/C as the result in the treated group divided by that in the control group, in per cent.

We go through eleven compounds from ChEMBL document CHEMBL5233251, “Epoxide containing molecules: A good or a bad drug design approach” (Eur J Med Chem, 2020).

≈ marks a conversion by molar mass, not a printed value.

For data set [1], the target named is T1, Aromatase (Homo sapiens, UniProt P11511).
T1 sequence (P11511 whole entry): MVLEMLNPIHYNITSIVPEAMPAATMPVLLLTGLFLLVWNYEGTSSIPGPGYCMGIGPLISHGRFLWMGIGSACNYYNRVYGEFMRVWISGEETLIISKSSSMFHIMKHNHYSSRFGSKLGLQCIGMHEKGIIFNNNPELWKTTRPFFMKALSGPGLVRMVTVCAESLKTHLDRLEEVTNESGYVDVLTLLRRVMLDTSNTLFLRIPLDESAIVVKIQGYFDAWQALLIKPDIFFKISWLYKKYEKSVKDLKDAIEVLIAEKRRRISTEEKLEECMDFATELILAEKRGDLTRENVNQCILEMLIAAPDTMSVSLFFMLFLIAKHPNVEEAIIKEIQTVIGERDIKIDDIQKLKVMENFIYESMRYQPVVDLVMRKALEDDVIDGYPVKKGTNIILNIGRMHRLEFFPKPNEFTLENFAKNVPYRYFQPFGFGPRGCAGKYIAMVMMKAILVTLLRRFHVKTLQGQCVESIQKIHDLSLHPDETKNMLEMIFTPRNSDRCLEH
Description: Inhibition of aromatase in human MCF-7aro cells using [1beta-3H] androstenedione as substrate at 10 uM incubated for 1 hrs relative to control. It counts as cell-based.

The target in data set [2] is T1, Aromatase. Description: Inhibition of aromatase in human MCF-7aro cells using [1beta-3H] androstenedione as substrate incubated for 1 hrs. It counts as cell-based.
Data set [3] has as its target T1, Aromatase. The data set can be described thus: Inhibition of aromatase in disrupted human MCF-7aro cells using [1beta-3H] androstenedione as substrate incubated for 1 hrs in the presence of NADPH.
Data set [4] is described as follows: Induction of apoptosis in human multiple myeloma cell. The format is functional, cell-based.
A further data set deals with NCI-H522. Description: Cytotoxicity against human NCI-H522 cells assessed as inhibition of cell growth incubated for 3 days. The format is functional, cell-based. Particulars: NCI-H522, 72 h.
The nature of data set [5]: Cytotoxicity against human RPMI-8226/Dox40 cells assessed as inhibition of cell growth incubated for 3 days. The format is functional, cell-based. Particulars: RPMI-8226, 72 h.
Another data set deals with Ehrlich. The data set can be described thus: Antitumor activity against mouse Ehrlich cells implanted in ddY mouse assessed as T/C ratio at 70 mg/kg administered for 9 to 10 days. It counts as functional. Particulars: time 9-10 day.
The subject of data set [6] is Sarcoma-180. The data set can be described thus: Antitumor activity against mouse Sarcoma-180 cells ascitic form implanted in ICR mouse assessed as T/C ratio at 100 mg/kg, ip administered from day 1 to 5 and measured after 60 days. The format is functional. Particulars: time 60 day.
In data set [7] the test system is Sarcoma-180. Description: Antitumor activity against mouse Sarcoma-180 cells solid form implanted in ICR mouse assessed as T/C ratio at 12.5 mg/kg, ip administered from day 1 to 5 and measured after 60 days. The format is functional. Particulars: time 60 day.
Data set [8] in a line: Antitumor activity against IMC (unknown origin) cells xenografted in CDF1 mouse assessed as T/C ratio at 200 mg/kg, ip administered from day 1 to 5 and measured after 60 days. The format is functional. Particulars: time 60 day.
For the next data set, the system named is B16. The data set can be described thus: Antitumor activity against mouse B16 cells implanted in BDF1 mouse assessed as T/C ratio at 25 mg/kg, ip administered from day 1 to 5 and measured after 60 days. The format is functional. Particulars: time 60 day.
Data set [9] is described as follows: (§1) Cytotoxicity against HUVEC cells assessed as inhibition of cell growth incubated for 72 hrs by MTT assay. The format is toxicity, cell-based, Homo sapiens. Particulars: human, HUVEC cells. Background: Tetrazolium assays rely on reduction of a dye to a coloured formazan, in cell work by metabolically active cells.
The subject of a further data set is MIA PaCa-2. The data set can be described thus: Cytotoxicity against human MIA PaCa-2 cells assessed as inhibition of cell proliferation incubated for 72 hrs by MTT assay. It counts as functional, cell-based.
Data set [10] can be described thus: Cytotoxicity against human DeFew cells assessed as inhibition of cell proliferation incubated for 72 hrs by MTT assay. It counts as functional, cell-based.
For data set [11], the system named is A2780. Description: Cytotoxicity against human A2780 cells assessed as inhibition of cell growth incubated for 96 hrs by SRB assay. The format is toxicity, cell-based. Particulars: A2780, 96 h. In general terms: In SRB staining, fixed cells bind dye roughly in proportion to their protein.
Data set [12] relates to A2780. Description: Antiproliferative activity against human A2780 cells assessed as inhibition of cell proliferation incubated for 4 days by MTT assay. The format is functional, cell-based. Particulars: A2780, 96 h.
The subject of the next data set is Malme-3M. Description: Antiproliferative activity against human Malme-3M cells assessed as inhibition of cell proliferation incubated for 4 days by MTT assay. The format is functional, cell-based. Particulars: 96 h.
The test system of the next data set is MCF7. Description: Antiproliferative activity against human MCF7 cells assessed as inhibition of cell proliferation incubated for 4 days by MTT assay. It counts as functional, cell-based. Particulars: MCF7, 96 h.
In another data set the test system is HT-29. The data set can be described thus: Antiproliferative activity against human HT-29 cells assessed as inhibition of cell proliferation incubated for 4 days by MTT assay. It counts as functional, cell-based. Particulars: HT-29, 96 h.
The next data set has as its system HeLa. The data set can be described thus: Antiproliferative activity against human HeLa cells assessed as inhibition of cell proliferation incubated for 4 days by MTT assay. The format is functional, cell-based. Particulars: 96 h.
The next data set has as its system NCI-H1299. The data set can be described thus: Antiproliferative activity against human NCI-H1299 cells assessed as inhibition of cell proliferation incubated for 4 days by MTT assay. The format is functional, cell-based. Particulars: NCI-H1299, 96 h.
Another data set has as its system K562. The data set can be described thus: Antiproliferative activity against human K562/C1000 cells assessed as inhibition of cell proliferation incubated for 4 days by MTT assay. The format is functional, cell-based. Particulars: K562, 96 h.
The test system of a further data set is HEp-2. The data set can be described thus: Cytotoxicity against human HEp-2 cells assessed as inhibition of cell growth. It counts as functional. Particulars: read-out: ED50 (the source's name).
The next data set has as its system HUVEC. Described as §1. The format is toxicity, cell-based, Homo sapiens. Particulars: huvec.
Data set [13] relates to Plasmodium falciparum. Description: Antimalarial activity against chloroquine-sensitive Plasmodium falciparum D10 incubated for 48 hrs. It counts as functional, organism-based. Particulars: D10, 48 h.
Data set [14] deals with Plasmodium falciparum. Description: Antimalarial activity against […] incubated for 48 hrs. The format is functional, organism-based. Particulars: K1, 48 h.
The test system of data set [15] is Plasmodium falciparum. The data set can be described thus: Antimalarial activity against Sulfadoxine-sensitive Plasmodium falciparum FCR3. The format is functional, organism-based.
Data set [16] relates to Plasmodium falciparum. The data set can be described thus: Antimalarial activity against Sulfadoxine-sensitive Plasmodium falciparum HB3. The format is functional, organism-based.
The subject of data set [17] is Plasmodium falciparum. Description: Antimalarial activity against Sulfadoxine-sensitive Plasmodium falciparum D6. The format is functional, organism-based.
The test system of data set [18] is Plasmodium falciparum. Description: Antimalarial activity against Sulfadoxine-resistant Plasmodium falciparum W2. The format is functional, organism-based.
Data set [19] deals with Plasmodium falciparum. The data set can be described thus: Antimalarial activity against Sulfadoxine-resistant Plasmodium falciparum 3D7. It counts as functional, organism-based.
Data set [20] relates to MG-63. Description: Antiproliferative activity against human MG-63 cells assessed as inhibition of cell growth by MTT assay. The format is functional, cell-based.
The subject of data set [21] is MG-63. Description: Antiproliferative activity against human MG-63 cells assessed as reduction in cell viability by SRB assay. The format is functional, cell-based.

In turn, `C[C@]12CC[C@H]3[C@@H](CC[C@@]45O[C@@H]4CCC[C@]35C)[C@@H]1CCC2=O` registered an inhibition at 10 µM against Aromatase [1] of 52.2%. The results for the IC50 on Aromatase [2] and on Aromatase [3] were 8500 nM and 1200 nM, respectively.

With `COc1ccc2c(c1)C(=O)C1OC1(C)C2=O` (stereo not given), the EC50 in data set [4] was determined as 3500 nM.

Turning to `C[C@]1([C@H]2Cc3ccc4c(c3O2)-n2cc(C(=O)O)c(=O)c3cc(F)c(N5CC[C@H](N)C5)c(c32)O4)CO1`, the figures for the 50% inhibitory concentration (IC50) (in the data set on NCI-H522; in [5]) were 70 nM and 50 nM, respectively.

Consider `CO[C@H]1[C@@H](OC)C[C@H](C)[C@@H](OC)C2=CC(=O)C(N3CCN(C)CC3)=C(NC(=O)/C(C)=C/C=C\[C@H](OC)[C@H](OC(N)=O)C3(C)CC3[C@@H]1C)C2=O` (stereo not given in full), for which the T/C stood at 141% in the data set with Ehrlich; 200% with Sarcoma-180 [6]; 167% in the data set on Sarcoma-180 [7]; 358% in data set [8]; 155% in the data set with B16.

Consider `CC(C)=CCCC1(C)OC1C=O` (stereo in doubt; 10b), for which, in data set [9], the IC50 at 72 h was 162000 nM. Also, the half-inhibitory concentration (IC50) in the data set on MIA PaCa-2 (Homo sapiens, MIA PaCa-2, 72 h) turned out to be 94000 nM; in data set [10] (Homo sapiens, DeFew, 72 h), 89000 nM.

For the compound `CC1=CC[C@]23O[C@@]2(C)CC[C@@H]2[C@H](OC(=O)[C@H]2CN2CCNCC2)[C@@H]13`, in the data set on A2780 [11], the IC50 is 3750 nM.

Consider `CC1(C)NC(=O)[C@@H](CCCCCC(=O)[C@@H]2CO2)NC(=O)CC2CCCN2C(=O)[C@@H](Cc2ccccc2)NC1=O` (stereo not given in full), for which the half-inhibitory concentration (IC50) is 0.36 nM in the data set with A2780 [12]; 45 nM in the data set with Malme-3M; 5.3 nM with MCF7; 4.3 nM with HT-29; 14 nM in the data set with HeLa; 4 nM in the data set with NCI-H1299. For the same compound, the IC50 in the data set with K562 was 0.76 nM.

Consider `C[C@@H]1C[C@H]2OC(=O)[C@@H](C)[C@H]2[C@H](O)[C@]2(C)C(=O)C3OC3[C@@H]12` (stereo not given in full), for which the EC50 in the data set on HEp-2 is 0.11 µg/mL (≈ 0.392 µM).

As to `CC(C)=CCCC1(C)OC1C=O` (stereo in doubt; 10a), the IC50 in the data set on HUVEC amounted to 200000 nM; in the data set with MIA PaCa-2 (mia paca-2), 88700 nM; in data set [10] (defew) it was 45000 nM.

As for `Fc1ccc([C@]23CC[C@](c4ccc(F)cc4)(OO2)[C@H]2O[C@H]23)cc1`, the IC50 is 80 nM in the data set with Plasmodium falciparum [13]; 80 nM in the data set with Plasmodium falciparum [14]; 10 nM in the data set with Plasmodium falciparum [15]; 10 nM with Plasmodium falciparum [16]; 10 nM in the data set with Plasmodium falciparum [17]; greater than 10000 nM in the data set with Plasmodium falciparum [18]. This compound also displayed an IC50 in the data set on Plasmodium falciparum [19] greater than 10000 nM.

As to `C[C@@H]1CC[C@@H]([C@@]2(C)CO2)[C@H](OCc2ccccc2)C1`, the IC50 with MG-63 [20] and in the data set on MG-63 [21] was 100000 nM each time.
